We go through seven molecules from ChEMBL document CHEMBL5036329, “4-Methyl-1,2,3-Triazoles as N-Acetyl-Lysine Mimics Afford Potent BET Bromodomain Inhibitors with Improved Selectivity” (J Med Chem, 2021).

The nature of series [1]: Microsomal stability in human liver microsomes assessed as fraction unbound measured upto 60 mins in presence of NADPH regenerating system by LC-MS analysis. In kind it is ADME, Microsome. Particulars: 1 h. (Microsomes from liver hold many membrane-bound enzymes, among them those of drug oxidation.)
For series [2], the target named is T1, Bromodomain testis-specific protein (Homo sapiens, UniProt Q58F21). Briefly: Binding affinity to human partial length BRDT BD2 expressed in bacterial expression system assessed as dissociation constant by BROMOscan assay.
Series [3] has as its target T1, Bromodomain testis-specific protein. Briefly: Binding affinity to human partial length BRDT BD1 expressed in bacterial expression system assessed as dissociation constant by BROMOscan assay.
The target of series [4] is T2, Bromodomain-containing protein 3 (Homo sapiens, UniProt Q15059). Briefly: Binding affinity to human partial length BRD3 BD2 expressed in bacterial expression system assessed as dissociation constant by BROMOscan assay.
The target in series [5] is T2, Bromodomain-containing protein 3. The series is described as follows: Binding affinity to human partial length BRD3 BD1 expressed in bacterial expression system assessed as dissociation constant by BROMOscan assay.

A word on the Kd: it is the constant that tells how readily two partners part at equilibrium.

T2 sequence (Q15059 whole entry): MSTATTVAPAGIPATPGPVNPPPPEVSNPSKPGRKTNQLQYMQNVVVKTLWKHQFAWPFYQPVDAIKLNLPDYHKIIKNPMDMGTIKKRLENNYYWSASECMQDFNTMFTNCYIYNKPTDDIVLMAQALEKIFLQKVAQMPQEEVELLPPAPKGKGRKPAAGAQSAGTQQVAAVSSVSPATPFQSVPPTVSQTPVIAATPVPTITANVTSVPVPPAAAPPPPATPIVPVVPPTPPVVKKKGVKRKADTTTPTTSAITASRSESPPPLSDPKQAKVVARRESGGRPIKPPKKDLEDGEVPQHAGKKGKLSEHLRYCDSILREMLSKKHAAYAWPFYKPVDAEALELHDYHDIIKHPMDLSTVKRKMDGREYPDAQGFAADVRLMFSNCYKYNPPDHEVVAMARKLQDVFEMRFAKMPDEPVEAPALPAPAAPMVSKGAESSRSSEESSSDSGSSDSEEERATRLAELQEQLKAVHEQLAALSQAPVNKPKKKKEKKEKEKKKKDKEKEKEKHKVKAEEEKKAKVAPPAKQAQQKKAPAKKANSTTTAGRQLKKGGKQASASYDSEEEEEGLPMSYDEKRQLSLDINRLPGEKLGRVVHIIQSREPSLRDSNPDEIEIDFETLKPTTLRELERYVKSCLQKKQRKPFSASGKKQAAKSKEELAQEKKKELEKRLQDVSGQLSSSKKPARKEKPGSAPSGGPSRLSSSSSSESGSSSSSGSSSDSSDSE

Turning to `Cc1cc(C)cc(Oc2cccc(-c3c(C)nnn3C3CCNCC3)n2)c1`, in series [1], the Fu was found to be 0.13.
On the same count and under the same terms, the result for `Cc1cc(C)cc(Nc2nccc(-c3c(-c4ccc(C(F)(F)F)cc4)ncn3C3CCN(CCN)CC3)n2)c1` reads 0.08; that for `Cc1nnn(C2CCN(CCN(C)C)CC2)c1-c1cccc(Oc2cc(Br)ccc2Br)n1`, 0.13.
As to `Cc1cc(C)cc(Oc2cccc(-c3c(C)nnn3C3CCN(CCN(C)C)CC3)n2)c1`, the dissociation constant Kd in series [2] is 250 nM; in series [3], 15 nM; in series [4], 310 nM; in series [5], 20 nM. Moreover, in series [1], the Fu was determined as 0.14.
In the case of `Cc1nnn(C2CCNCC2)c1-c1cccc(Oc2cc(C3CC3)cc(C3CC3)c2)n1`, the Fu in series [1] is reported as 0.12.
In the case of `Cc1nnn(C2CCNCC2)c1-c1cccc(Oc2cc(Cl)cc(Cl)c2)n1`, the Fu in series [1] turned out to be 0.11.
On the same count and under the same terms, the result for `Cc1nnn(C2CCNCC2)c1-c1cccc(Oc2cc(Br)cc(Br)c2)n1` reads 0.09.
